Data as given in patent publication US6043279A, “Compounds having selective activity for retinoid X receptors, and means for modulation of processes mediated by retinoid X receptors” (priority 1997, dated 2000).

Tests used:
Assay type in all cases: cell-based
RXRβ = molecular target: T1, RXRβ (Mus musculus, UniProt P28704); assay: co-transfection (cis-trans) assay in CV-1 cells, RXRβ; details: for Emax: CV-1, maximal response relative to all-trans-retinoic acid at 10^-5 M, read-out: Efficacy RXRβ; for EC50: CV-1 cells, luciferase reporter, concentration giving 50% of maximal observed response, read-out: Potency (nM) RXRβ
T1 construct: expressed in transfected cells; host or cells: CV-1 (monkey kidney)
T1 sequence (P28704 1-520): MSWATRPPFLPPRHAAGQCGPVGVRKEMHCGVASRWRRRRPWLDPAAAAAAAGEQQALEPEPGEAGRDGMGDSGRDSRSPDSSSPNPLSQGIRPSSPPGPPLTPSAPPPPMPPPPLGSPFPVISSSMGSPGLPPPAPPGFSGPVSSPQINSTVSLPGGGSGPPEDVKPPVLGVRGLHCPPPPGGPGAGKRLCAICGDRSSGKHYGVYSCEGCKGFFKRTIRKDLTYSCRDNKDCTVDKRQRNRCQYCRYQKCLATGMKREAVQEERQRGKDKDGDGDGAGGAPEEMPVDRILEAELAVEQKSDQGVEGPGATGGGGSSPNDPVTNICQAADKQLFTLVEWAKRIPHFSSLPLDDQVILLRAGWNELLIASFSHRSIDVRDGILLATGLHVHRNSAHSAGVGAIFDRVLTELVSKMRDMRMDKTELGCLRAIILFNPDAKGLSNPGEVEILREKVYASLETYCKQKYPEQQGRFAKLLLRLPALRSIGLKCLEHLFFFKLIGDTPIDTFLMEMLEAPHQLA
Source text: (§1) The co-transfection assay provides a mechanism to evaluate the ability of a compound to modulate the transcription response initiated by an intracellular receptor. […] Berger et al., J. Steroid Biochem. Molec.
(§2) Briefly, the co-transfection assay involves the introduction of two plasmids by transient transfection into a retinoid receptor-negative mammalian cell background. The first plasmid contains a retinoid receptor cDNA and directs constitutive expression of the encoded receptor. The second plasmid contains a cDNA that encodes for a readily quantifiable protein, e.g., firefly luciferase or chloramphenicol acetyl transferase (CAT), under control of a promoter containing a retinoid acid response element, which confers retinoid dependence on the transcription of the reporter. In this co-transfection assay, all retinoid receptors respond to all-trans-retinoic acid in a similar fashion. This assay can be used to accurately measure efficacy and potency of retinoic acid and synthetic retinoids as ligands that interact with the individual retinoid receptor subtypes.
(§3) Accordingly, synthetic retinoid compounds of the current invention were evaluated for their interaction with retinoid receptor subtypes using the co-transfection assay in which CV-1 cells were co-transfected with one of the retinoid receptor subtypes, a reporter construct, and an internal control to allow normalization of the response for transfection efficiency. The following example is illustrative.
(§4) Retinoids: All-trans-retinoic acid (RA) and 13-cis-retinoic acid (13-cis-RA) were obtained from Sigma. […] Retinoids were dissolved in dimethylsulfoxide for use in the transcriptional activation assays.
(§5) Co-transfection Assay In CV-1 Cells: A monkey kidney cell line, CV-1, was used in the cis-trans assay. Cells were transfected with two plasmids. […] The cis-vector contains an easily assayable gene product, in this case the firefly luciferase, coupled to a retinoid-responsive promoter, i.e., an RARE or RXRE. Addition of retinoic acid or an appropriate synthetic retinoid results in the formation of a retinoid-RAR or -RXR complex that activates the expression of luciferase gene, causing light to be emitted from cell extracts. The level of luciferase activity is directly proportional to the effectiveness of the retinoid-receptor complex in activating gene expression. This sensitive and reproducible co-transfection approach permits the identification of retinoids that interact with the different receptor isoforms.
Cells were cultured in DMEM supplemented with 10% charcoal resin-stripped fetal bovine serum, and experiments were conducted in 96-well plates. […] Cells were transfected for 6 h and then washed to remove the precipitate. The cells were then incubated for 36 h with or without retinoid. After the transfection, all subsequent steps were performed on a Beckman Biomek Automated Workstation. […] All determinations were performed in triplicate in two independent experiments and were normalized for transfection efficiency by using β-galactosidase as the internal control. […] Efficacy values less than 5% are not statistically different than the 0% background.

RARβ = molecular target: T2, RARβ (Homo sapiens, UniProt P10826); assay: co-transfection (cis-trans) assay in CV-1 cells, RARβ; details: for Emax: CV-1, maximal response relative to all-trans-retinoic acid at 10^-5 M, read-out: Efficacy RARβ; for EC50: CV-1 cells, luciferase reporter, concentration giving 50% of maximal observed response, read-out: Potency (nM) RARβ
T2 construct: expressed in transfected cells; host or cells: CV-1 (monkey kidney)
T2 sequence (P10826 1-448 isoform P10826-2): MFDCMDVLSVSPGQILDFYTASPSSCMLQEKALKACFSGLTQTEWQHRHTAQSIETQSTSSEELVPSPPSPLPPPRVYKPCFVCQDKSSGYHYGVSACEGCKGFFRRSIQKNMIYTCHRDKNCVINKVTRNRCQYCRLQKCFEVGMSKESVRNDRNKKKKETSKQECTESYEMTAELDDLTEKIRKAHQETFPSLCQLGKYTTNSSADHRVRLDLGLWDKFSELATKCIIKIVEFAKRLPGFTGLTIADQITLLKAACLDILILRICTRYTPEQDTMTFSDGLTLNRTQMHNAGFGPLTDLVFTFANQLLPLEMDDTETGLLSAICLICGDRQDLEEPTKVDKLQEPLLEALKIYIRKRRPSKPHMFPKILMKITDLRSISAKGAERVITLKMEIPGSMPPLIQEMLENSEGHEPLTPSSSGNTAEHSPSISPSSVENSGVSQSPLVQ
Source text: as §1, §2, §3, §4, §5
(§6) Cells were cultured in DMEM supplemented with 10% charcoal resin-stripped fetal bovine serum, and experiments were conducted in 96-well plates. […] Cells were transfected for 6 h and then washed to remove the precipitate. The cells were then incubated for 36 h with or without retinoid. […]

RXRα = molecular target: T3, RXRα (Homo sapiens, UniProt P19793); assay: co-transfection (cis-trans) assay in CV-1 cells, RXRα; details: for Emax: CV-1, maximal response relative to all-trans-retinoic acid at 10^-5 M, read-out: Efficacy RXRα; for EC50: CV-1 cells, luciferase reporter, concentration giving 50% of maximal observed response, read-out: Potency (nM) RXRα
T3 construct: expressed in transfected cells; host or cells: CV-1 (monkey kidney)
T3 sequence (P19793 1-462): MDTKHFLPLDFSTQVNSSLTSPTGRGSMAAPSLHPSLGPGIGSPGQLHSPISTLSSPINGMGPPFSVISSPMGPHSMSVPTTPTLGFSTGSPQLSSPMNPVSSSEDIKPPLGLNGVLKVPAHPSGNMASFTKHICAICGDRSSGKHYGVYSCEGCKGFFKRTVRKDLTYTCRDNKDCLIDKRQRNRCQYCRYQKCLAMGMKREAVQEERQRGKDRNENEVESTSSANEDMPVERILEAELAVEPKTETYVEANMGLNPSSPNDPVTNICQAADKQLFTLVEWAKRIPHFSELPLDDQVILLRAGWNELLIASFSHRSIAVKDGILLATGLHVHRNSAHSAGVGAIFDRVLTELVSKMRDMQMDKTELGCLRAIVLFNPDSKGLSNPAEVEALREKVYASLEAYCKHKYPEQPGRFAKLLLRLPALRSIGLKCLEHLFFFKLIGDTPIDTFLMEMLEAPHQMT
Source text: as §1, §2, §3, §4, §5, §6

Emax (RXRβ) [%] | EC50 (RXRβ) [nM] | Emax (RARβ) [%] | EC50 (RARβ) [nM] | Emax (RXRα) [%] | EC50 (RXRα) [nM] | SMILES
56 | 470 | < 2 | > 10000 | 86 | 440 | C=C(c1ccc(C(=O)O)cc1)c1ccc(C(C)(C)C)cc1C [Compound 133, 4-[1-(2-methyl-4-t-butylphenyl)ethenyl]benzoic acid]
57 | 270 | < 2 | > 10000 | 47 | 270 | Cc1cc(C(C)(C)C)ccc1C(=NO)c1ccc(C(=O)O)cc1 [Compound 137, 4-[(2-methyl-4-t-butylphenyl)carbonyl]benzoic acid oxime]
